Laboratory results from ChEMBL document CHEMBL1201862, “PubChem BioAssay data set” (2004).
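96-well plates; 48 h exposure; 5 concentrations. Endpoints by linear interpolation between flanking doses. Not reached: highest tested concentration assigned. GI50 marks 50% less growth.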 Calls of active or inactive are those of the source. No stated cut-off is given here; in the data, active = GI50 up to about 1.1 µM and inactive = higher.

Key:
Assay in all cases: DTP human tumour cell line panel, 48 h
[1] = tested on: 786-0
[2] = tested on: A498
[3] = tested on: A549
[4] = tested on: ACHN
[5] = tested on: BT-549
[6] = tested on: CAKI-1
[7] = tested on: CCRF-CEM
[8] = tested on: COLO 205
[9] = tested on: DU-145
[10] = tested on: EKVX
[11] = tested on: HCC 2998
[12] = tested on: HCT-116
[13] = tested on: HCT-15
[14] = tested on: HL-60
[15] = tested on: HOP-62
[16] = tested on: HOP-92
[17] = tested on: HT-29
[18] = tested on: Hs-578T
[19] = tested on: IGROV-1
[20] = tested on: K562
[21] = tested on: KM12
[22] = tested on: LOX IMVI
[23] = tested on: M14
[24] = tested on: MCF7
[25] = tested on: MDA-MB-231
[26] = tested on: MDA-MB-435
[27] = tested on: MOLT-4
[28] = tested on: Malme-3M
[29] = tested on: NCI-H226
[30] = tested on: NCI-H23
[31] = tested on: NCI-H460
[32] = tested on: NCI-H522
[33] = tested on: NCI/ADR-RES
[34] = tested on: OVCAR-3
[35] = tested on: OVCAR-4
[36] = tested on: OVCAR-5
[37] = tested on: OVCAR-8
[38] = tested on: PC-3
[39] = tested on: RPMI-8226
[40] = tested on: RXF 393
[41] = tested on: SF-268
[42] = tested on: SF-295
[43] = tested on: SF-539
[44] = tested on: SK-MEL-28
[45] = tested on: SK-MEL-2
[46] = tested on: SK-MEL-5
[47] = tested on: SK-OV-3
[48] = tested on: SN12C
[49] = tested on: SNB-19
[50] = tested on: SNB-75
[51] = tested on: SR
[52] = tested on: SW-620
[53] = tested on: T47D
[54] = tested on: TK-10
[55] = tested on: U-251
[56] = tested on: UACC-257
[57] = tested on: UACC-62
[58] = tested on: UO-31
[59] = tested on: MDA-N

SMILES: CN(C)CCNCCCNc1c2ccccc2nc2cccc([N+](=O)[O-])c12
- GI50 [1]: < 12.6 nM (active)
- GI50 [2]: 21 nM (active)
- GI50 [3]: < 17 nM (active)
- GI50 [4]: 17 nM (active)
- GI50 [5]: 157 nM (active)
- GI50 [6]: 38.5 nM (active)
- GI50 [7]: < 12.1 nM (active)
- GI50 [8]: < 14.1 nM (active)
- GI50 [9]: < 15.9 nM (active)
- GI50 [10]: < 17 nM (active)
- GI50 [11]: < 12.6 nM (active)
- GI50 [12]: < 16.1 nM (active)
- GI50 [13]: 82.6 nM
- GI50 [14]: < 13.9 nM (active)
- GI50 [15]: 28.8 nM (active)
- GI50 [16]: < 15.6 nM (active)
- GI50 [17]: < 12.5 nM (active)
- GI50 [18]: < 38.6 nM (active)
- GI50 [19]: < 20.5 nM (active)
- GI50 [20]: < 11.9 nM (active)
- GI50 [21]: 27 nM (active)
- GI50 [22]: < 14.8 nM (active)
- GI50 [23]: 22.4 nM (active)
- GI50 [24]: 10.2 nM (active)
- GI50 [25]: < 12.9 nM (active)
- GI50 [26]: < 14.4 nM (active)
- GI50 [27]: < 10 nM (active)
- GI50 [28]: 46.1 nM (active)
- GI50 [29]: 24.8 nM (active)
- GI50 [30]: < 12.1 nM (active)
- GI50 [31]: < 12.1 nM (active)
- GI50 [32]: < 10 nM (active)
- GI50 [33]: 910 nM (active)
- GI50 [34]: < 15.7 nM (active)
- GI50 [35]: < 12.9 nM (active)
- GI50 [36]: < 14.8 nM (active)
- GI50 [37]: < 14.6 nM (active)
- GI50 [38]: < 17.1 nM (active)
- GI50 [39]: < 13.8 nM (active)
- GI50 [40]: 13.8 nM (active)
- GI50 [41]: < 16 nM (active)
- GI50 [42]: < 16.3 nM (active)
- GI50 [43]: 67.6 nM (active)
- GI50 [44]: 188 nM (active)
- GI50 [45]: 19.7 nM (active)
- GI50 [46]: < 18.1 nM (active)
- GI50 [47]: 42.4 nM (active)
- GI50 [48]: < 20.8 nM (active)
- GI50 [49]: 29.8 nM (active)
- GI50 [50]: 17.3 nM (active)
- GI50 [51]: < 10 nM (active)
- GI50 [52]: < 14.4 nM (active)
- GI50 [53]: 38.7 nM (active)
- GI50 [54]: 46 nM (active)
- GI50 [55]: < 17.5 nM (active)
- GI50 [56]: 220 nM (active)
- GI50 [57]: 44.6 nM (active)
- GI50 [58]: 74.1 nM (active)

SMILES: N#CC(C#N)/N=C/c1ccncc1
- GI50 [1]: > 100000 nM (inactive)
- GI50 [2]: 95900 nM (inactive)
- GI50 [3]: > 100000 nM (inactive)
- GI50 [4]: > 100000 nM (inactive)
- GI50 [5]: > 100000 nM (inactive)
- GI50 [6]: > 100000 nM (inactive)
- GI50 [7]: 28700 nM (inactive)
- GI50 [8]: > 100000 nM (inactive)
- GI50 [9]: > 100000 nM (inactive)
- GI50 [10]: > 100000 nM (inactive)
- GI50 [11]: > 100000 nM (inactive)
- GI50 [12]: > 100000 nM (inactive)
- GI50 [13]: > 100000 nM
- GI50 [14]: 39000 nM (inactive)
- GI50 [15]: > 100000 nM (inactive)
- GI50 [16]: > 100000 nM (inactive)
- GI50 [17]: > 100000 nM (inactive)
- GI50 [19]: > 100000 nM (inactive)
- GI50 [20]: > 100000 nM (inactive)
- GI50 [21]: > 100000 nM (inactive)
- GI50 [22]: > 100000 nM (inactive)
- GI50 [23]: > 100000 nM (inactive)
- GI50 [24]: > 100000 nM (inactive)
- GI50 [25]: > 100000 nM (inactive)
- GI50 [26]: > 100000 nM (inactive)
- GI50 [59]: > 100000 nM (inactive)
- GI50 [27]: > 100000 nM (inactive)
- GI50 [28]: > 100000 nM (inactive)
- GI50 [29]: > 100000 nM (inactive)
- GI50 [30]: > 100000 nM (inactive)
- GI50 [33]: > 100000 nM (inactive)
- GI50 [34]: > 100000 nM (inactive)
- GI50 [35]: > 100000 nM (inactive)
- GI50 [36]: > 100000 nM (inactive)
- GI50 [37]: > 100000 nM (inactive)
- GI50 [38]: > 100000 nM (inactive)
- GI50 [39]: > 100000 nM (inactive)
- GI50 [40]: > 100000 nM (inactive)
- GI50 [41]: > 100000 nM (inactive)
- GI50 [42]: > 100000 nM (inactive)
- GI50 [43]: > 100000 nM (inactive)
- GI50 [44]: > 100000 nM (inactive)
- GI50 [45]: > 100000 nM (inactive)
- GI50 [46]: > 100000 nM (inactive)
- GI50 [47]: > 100000 nM (inactive)
- GI50 [48]: > 100000 nM (inactive)
- GI50 [50]: > 100000 nM (inactive)
- GI50 [52]: > 100000 nM (inactive)
- GI50 [53]: > 100000 nM (inactive)
- GI50 [54]: > 100000 nM (inactive)
- GI50 [55]: > 100000 nM (inactive)
- GI50 [56]: > 100000 nM (inactive)
- GI50 [57]: > 100000 nM (inactive)
